Patent US12534472B2, “Morphic forms of trilaciclib and methods of manufacture thereof” (Pharmacosmos Holding A/S, priority 2020, dated 2026)
Entries after “also recorded” stand apart in the source; their conditions may differ.

Key:
Type in all cases: physicochemical
[1] = Dynamic Vapor Sorption (DVS)
Protocol: Approximately, 10-20 mg of sample was placed into a mesh vapor sorption balance pan and loaded into a DVS Intrinsic dynamic vapor sorption balance by Surface Measurement Systems. The sample was subjected to a ramping profile from 40-90% relative humidity (RH) at 10% increments, maintaining the sample at each step until a stable weight had been achieved (dm/dt 0.004%, minimum step length 30 minutes, maximum step length 500 minutes) at 25° C. After completion of the sorption cycle, the sample was dried using the same procedure to 0% RH and then a second sorption cycle back to 40% RH. Two cycles were performed. The weight change during the sorption/desorption cycles were plotted, allowing for the hygroscopic nature of the sample to be determined. XRPD analysis was then carried out on any solid retained. The above technique was used to generate the images in FIG. 5, FIG. 6, FIG. 47 and FIG. 48.

[2] = Competitive slurry experiments
Protocol: Competitive slurry experiments were carried out using ca. 10 mg of Pattern 1, Pattern 2/6 mixture and Pattern 3 were weighed out and added to a 1.5 mL glass vial. Samples were prepared using 100 μL aliquots of solvent until a mobile slurry was formed. Samples were stirred at ambient temperature for 48 hours. A second set of samples were stirred at 60° C. for 48 hours. All samples were collected, and the solids were isolated and analyzed by XRPD. The above technique was used to generate the images in FIG. 50, FIG. 51, and FIG. 55 through FIG. 59.

[3] = Thermodynamic solubility in water at pH 4.2
Protocol: Thermodynamic solubility was carried out for Pattern 1, Pattern 2/6 mixture, Pattern 3, amorphous di-HCl salts and Pattern 7 in water at pH 4.2. All samples were prepared at 30 mg/mL. Initial observations were made. The samples were agitated at ambient temperature for ca. 24 hours. The samples were collected and observations made. Observed solids were isolated via centrifugation. The mother liquor from the filtered sample was analyzed by HPLC. The pH 4.3 solution was prepared by diluting glacial acetic acid (11.6 mL) to 100 mL in deionized water, then adding sodium acetate (1.07 g) and acetic acid solution (5.9 mL) preparing up to 500 mL with deionized water; then the pH was adjusted to 4.2. The above technique was used to generate the images in FIG. 60.

[4] = Gravimetric Vapor Sorption (GVS); conditions: 25° C.
Protocol: Approximately 10-20 mg of sample was placed into a mesh vapor sorption balance pan and loaded into an IGASorp Moisture Sorption Analyzer balance by Hiden Analytical. The sample was subjected to a ramping profile from 40-90% relative humidity (RH) at 10% increments, maintaining the sample at each step until a stable weight had been achieved (98% step completion, minimum step length 30 minutes, maximum step length 60 minutes) at 25° C. After completion of the sorption cycle, the sample was dried using the same procedure to 0% RH, and finally taken back to the starting point of 40% RH. Three cycles were performed. The weight change during the sorption/desorption cycles were plotted, allowing for the hygroscopic nature of the sample to be determined. The above technique was used to generate the images in FIG. 40 and FIG. 41.

moisture adsorbed (DVS) ([1]; at 40% RH): 3.00 wt %
moisture adsorbed (DVS) ([1]; at 90% RH): 4.00 wt %
mass increase by DVS ([1]; between 0% and 90% RH): 4%
stability compared to other morphic forms [2]: superior stability
Observations at T = 24 hours ([3]; 30 mg/mL in water at pH 4.2, agitated at ambient temperature ca. 24 hours): Yellow solution
Observations at T = 0 hours ([3]; 30 mg/mL in water at pH 4.2, ambient temperature, T = 0 hours): Yellow slurry
Change in Mass (%)-ref Desorption ([4]; Cycle 1, desorption, target RH 0%): 0.180%
Change in Mass (%)-ref Desorption ([4]; Cycle 1, desorption, target RH 10%): 2.320%
Change in Mass (%)-ref Desorption ([4]; Cycle 1, desorption, target RH 20%): 2.820%
Change in Mass (%)-ref Desorption ([4]; Cycle 1, desorption, target RH 30%): 3.110%
Change in Mass (%)-ref Desorption ([4]; Cycle 1, desorption, target RH 40%): 3.340%
Change in Mass (%)-ref Desorption ([4]; Cycle 1, desorption, target RH 50%): 3.580%
Change in Mass (%)-ref Desorption ([4]; Cycle 1, desorption, target RH 60%): 3.730%
Change in Mass (%)-ref Desorption ([4]; Cycle 1, desorption, target RH 70%): 3.820%
Change in Mass (%)-ref Desorption ([4]; Cycle 1, desorption, target RH 80%): 3.970%
Change in Mass (%)-ref Desorption ([4]; Cycle 1, desorption, target RH 90%): 4.160%
Change in Mass (%)-ref Sorption ([4]; Cycle 1, sorption, target RH 40%): 3.420%
Change in Mass (%)-ref Sorption ([4]; Cycle 1, sorption, target RH 50%): 3.560%
Change in Mass (%)-ref Sorption ([4]; Cycle 1, sorption, target RH 60%): 3.720%
Change in Mass (%)-ref Sorption ([4]; Cycle 1, sorption, target RH 70%): 3.800%
Change in Mass (%)-ref Sorption ([4]; Cycle 1, sorption, target RH 80%): 3.920%
Change in Mass (%)-ref Sorption ([4]; Cycle 1, sorption, target RH 90%): 4.160%
Change in Mass (%)-ref Desorption ([4]; Cycle 2, desorption, target RH 0%): 0.000%
Change in Mass (%)-ref Desorption ([4]; Cycle 2, desorption, target RH 10%): 2.240%
Change in Mass (%)-ref Desorption ([4]; Cycle 2, desorption, target RH 20%): 2.680%
Change in Mass (%)-ref Desorption ([4]; Cycle 2, desorption, target RH 30%): 3.020%
Change in Mass (%)-ref Desorption ([4]; Cycle 2, desorption, target RH 40%): 3.260%
Change in Mass (%)-ref Desorption ([4]; Cycle 2, desorption, target RH 50%): 3.500%
Change in Mass (%)-ref Desorption ([4]; Cycle 2, desorption, target RH 60%): 3.670%
Change in Mass (%)-ref Desorption ([4]; Cycle 2, desorption, target RH 70%): 3.780%
Change in Mass (%)-ref Desorption ([4]; Cycle 2, desorption, target RH 80%): 3.890%
Change in Mass (%)-ref Desorption ([4]; Cycle 2, desorption, target RH 90%): 4.080%
Change in Mass (%)-ref Sorption ([4]; Cycle 2, sorption, target RH 0%): 0.180%
Change in Mass (%)-ref Sorption ([4]; Cycle 2, sorption, target RH 10%): 2.300%
Change in Mass (%)-ref Sorption ([4]; Cycle 2, sorption, target RH 20%): 2.770%
Change in Mass (%)-ref Sorption ([4]; Cycle 2, sorption, target RH 30%): 3.030%
Change in Mass (%)-ref Sorption ([4]; Cycle 2, sorption, target RH 40%): 3.290%
Change in Mass (%)-ref Sorption ([4]; Cycle 2, sorption, target RH 50%): 3.470%
Change in Mass (%)-ref Sorption ([4]; Cycle 2, sorption, target RH 60%): 3.660%
Change in Mass (%)-ref Sorption ([4]; Cycle 2, sorption, target RH 70%): 3.780%
Change in Mass (%)-ref Sorption ([4]; Cycle 2, sorption, target RH 80%): 3.900%
Change in Mass (%)-ref Sorption ([4]; Cycle 2, sorption, target RH 90%): 4.080%
Change in Mass (%)-ref Sorption ([4]; Cycle 3, sorption, target RH 0%): 0.000%
Change in Mass (%)-ref Sorption ([4]; Cycle 3, sorption, target RH 10%): 2.250%
Change in Mass (%)-ref Sorption ([4]; Cycle 3, sorption, target RH 20%): 2.740%
Change in Mass (%)-ref Sorption ([4]; Cycle 3, sorption, target RH 30%): 3.020%
Change in Mass (%)-ref Sorption ([4]; Cycle 3, sorption, target RH 40%): 3.220%
Compound: CN1CCN(c2ccc(Nc3ncc4cc5n(c4n3)C3(CCCCC3)CNC5=O)nc2)CC1 [Pattern 1, 2′-((5-(4-methylpiperazin-1-yl)pyridin-2-yl)amino)-7′,8′-dihydro-6′H-spiro[cyclohexane-1,9′-pyrazino[1′,2′:1,5]pyrrolo[2,3-d]pyrimidin]-6′-one]
XRPD analysis post-DVS (form stability) ([1]; dried sample at the conclusion of the DVS experiment): confirmed Pattern 1; also recorded: no change
